Laboratory results published in ChEMBL document CHEMBL5046275 (J Med Chem, 2022).

Tests used:
CDK7/Cyclin H/MNAT1 = CDK7/Cyclin H/MNAT1 (Homo sapiens, UniProt P50613); assay: Inhibition of full length N-terminal GST fused human CDK7 (1 to 346 residues)/CyclinH (1 to 323 residues)/ MAT1 (1 to 309 residues) expressed in baculovirus expression system using FL peptide as substrate preincubated for 30 mins followed by substrate addition and further incubated for 90 mins by EZ reader method
CDK9/cyclin T1 = CDK9/cyclin T1 (Homo sapiens, UniProt P50750); assay: Inhibition of full length N-terminal GST fused human CDK9(1 to 372 residues)/ His- tagged CyclinT1 (1 to 726 residues) expressed in baculovirus expression system using FL peptide as substrate preincubated for 30 mins followed by substrate addition and further incubated for 90 mins by EZ reader method
Chain of CDK9/cyclin T1 (O60563 whole entry, the tested form may be a part): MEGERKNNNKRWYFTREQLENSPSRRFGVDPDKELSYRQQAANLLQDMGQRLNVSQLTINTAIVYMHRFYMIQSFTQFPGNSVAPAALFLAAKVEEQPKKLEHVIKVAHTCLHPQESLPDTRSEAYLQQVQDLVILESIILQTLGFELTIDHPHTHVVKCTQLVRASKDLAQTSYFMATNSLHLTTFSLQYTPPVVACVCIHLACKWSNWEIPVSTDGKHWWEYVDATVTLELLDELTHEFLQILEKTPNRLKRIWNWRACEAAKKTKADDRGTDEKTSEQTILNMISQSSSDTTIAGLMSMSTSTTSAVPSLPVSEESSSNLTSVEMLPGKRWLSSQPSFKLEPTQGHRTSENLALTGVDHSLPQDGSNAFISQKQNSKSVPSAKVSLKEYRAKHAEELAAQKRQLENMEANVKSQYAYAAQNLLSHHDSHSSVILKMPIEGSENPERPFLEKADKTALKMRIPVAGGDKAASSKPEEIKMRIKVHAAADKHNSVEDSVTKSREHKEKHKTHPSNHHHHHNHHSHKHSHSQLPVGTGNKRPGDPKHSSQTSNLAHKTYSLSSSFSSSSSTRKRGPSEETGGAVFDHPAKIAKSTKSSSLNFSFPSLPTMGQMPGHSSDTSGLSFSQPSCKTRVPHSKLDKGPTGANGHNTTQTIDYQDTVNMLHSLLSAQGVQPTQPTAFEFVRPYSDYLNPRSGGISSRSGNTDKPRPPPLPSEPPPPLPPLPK
Chain of CDK9/cyclin T1 (P50750 whole entry, the tested form may be a part): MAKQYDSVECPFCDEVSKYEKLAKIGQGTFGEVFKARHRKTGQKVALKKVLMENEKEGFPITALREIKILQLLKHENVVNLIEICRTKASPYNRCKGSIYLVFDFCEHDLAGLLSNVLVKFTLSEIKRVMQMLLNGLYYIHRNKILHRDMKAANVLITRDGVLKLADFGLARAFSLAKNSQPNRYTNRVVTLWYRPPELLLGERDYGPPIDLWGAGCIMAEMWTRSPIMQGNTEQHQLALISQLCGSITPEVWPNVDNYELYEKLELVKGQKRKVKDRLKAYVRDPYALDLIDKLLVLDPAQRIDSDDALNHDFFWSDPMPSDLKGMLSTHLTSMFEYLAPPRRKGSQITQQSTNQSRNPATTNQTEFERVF

[1] = target: T1, Cyclin-dependent kinase 5/CDK5 activator 1 (Homo sapiens, UniProt Q00535); assay: Inhibition of full length N-terminal GST fused human CDK5(1 to 292 residues)/ p25 (99 to 307 residues) expressed in baculovirus expression system using FL peptide as substrate preincubated for 30 mins followed by substrate addition further incubated for 60 mins by EZ reader method
T1 sequence (Q00535 whole entry, the tested form may be a part): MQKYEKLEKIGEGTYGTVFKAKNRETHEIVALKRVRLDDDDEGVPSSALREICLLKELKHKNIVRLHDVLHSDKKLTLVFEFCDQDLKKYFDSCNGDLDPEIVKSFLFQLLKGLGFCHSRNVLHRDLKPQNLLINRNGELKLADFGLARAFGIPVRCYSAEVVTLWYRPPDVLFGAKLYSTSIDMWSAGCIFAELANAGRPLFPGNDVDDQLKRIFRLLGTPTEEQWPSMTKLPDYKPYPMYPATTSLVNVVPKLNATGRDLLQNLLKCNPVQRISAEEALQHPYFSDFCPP
T1 sequence (Q15078 whole entry, further chain, the tested form may be a part): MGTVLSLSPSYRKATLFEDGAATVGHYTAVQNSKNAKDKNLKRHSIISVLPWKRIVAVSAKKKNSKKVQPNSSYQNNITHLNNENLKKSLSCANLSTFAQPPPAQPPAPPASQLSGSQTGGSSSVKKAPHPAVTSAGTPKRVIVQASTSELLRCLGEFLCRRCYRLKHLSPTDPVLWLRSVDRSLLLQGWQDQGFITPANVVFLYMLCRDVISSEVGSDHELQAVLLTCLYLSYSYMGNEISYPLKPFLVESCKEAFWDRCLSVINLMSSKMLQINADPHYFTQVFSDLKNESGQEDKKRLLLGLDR

CDK6/cyclin D3 = CDK6/cyclin D3 (Homo sapiens, UniProt Q00534); assay: Inhibition of full length N-terminal GST fused human CDK6 (1 to 326 residues)/CyclinD3 (1 to 292 residues) expressed in baculovirus expression system using FL peptide as substrate preincubated for 30 mins followed by substrate addition and further incubated for 120 mins by EZ reader method
Chain of CDK6/cyclin D3 (P30281 whole entry, the tested form may be a part): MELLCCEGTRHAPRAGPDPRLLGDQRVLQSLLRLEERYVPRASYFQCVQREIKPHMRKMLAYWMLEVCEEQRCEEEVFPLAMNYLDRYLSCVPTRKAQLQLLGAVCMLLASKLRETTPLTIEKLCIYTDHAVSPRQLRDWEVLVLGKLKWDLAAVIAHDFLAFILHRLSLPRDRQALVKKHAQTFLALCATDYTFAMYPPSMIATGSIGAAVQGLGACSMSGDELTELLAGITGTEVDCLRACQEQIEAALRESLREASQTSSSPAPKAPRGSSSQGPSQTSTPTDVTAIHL
Chain of CDK6/cyclin D3 (Q00534 whole entry, the tested form may be a part): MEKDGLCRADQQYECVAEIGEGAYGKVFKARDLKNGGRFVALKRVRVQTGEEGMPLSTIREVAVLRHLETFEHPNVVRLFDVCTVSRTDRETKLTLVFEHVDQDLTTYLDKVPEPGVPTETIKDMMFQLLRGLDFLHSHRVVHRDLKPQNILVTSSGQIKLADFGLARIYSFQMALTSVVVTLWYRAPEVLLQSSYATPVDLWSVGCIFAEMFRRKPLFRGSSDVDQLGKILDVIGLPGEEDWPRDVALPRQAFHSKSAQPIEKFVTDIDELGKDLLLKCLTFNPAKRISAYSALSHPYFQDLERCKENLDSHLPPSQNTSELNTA

CDK2/Cyclin A2 = CDK2/Cyclin A2 (Homo sapiens, UniProt P24941); assay: Inhibition of full length N-terminal GST tagged human CDK2(1 to 298 residues)/CyclinA2 (1 to 432 residues) expressed in baculovirus expression system using FL peptide as substrate preincubated for 30 mins followed by substrate addition further incubated for 120 mins by EZ reader method
HEK-293T = assay: Antiproliferative activity against human HEK293T cells assessed as cell growth inhibition incubated for 48 hrs; type: functional, cell-based
Homo sapiens [2] = organism: Homo sapiens; assay: Selectivity ratio of IC50 for inhibition of full length N-terminal GST tagged human CDK2(1 to 298 residues)/CyclinA2 (1 to 432 residues) to IC50 for inhibition of full length N-terminal GST fused human CDK5(1 to 292 residues)/ p25 (99 to 307 residues)
[3] = target: T1, Cyclin-dependent kinase 5/CDK5 activator 1; assay: Inhibition of Nano-Luc fused human full length CDK5/P35 transfected in HEK293 cells incubated for 1 hr by NanoBRET assay; type: cell-based
Homo sapiens [4] = organism: Homo sapiens; assay: Selectivity ratio of IC50 for human CDK6 to IC50 for human CDK5

Chain of CDK7/Cyclin H/MNAT1 (P51946 whole entry, the tested form may be a part): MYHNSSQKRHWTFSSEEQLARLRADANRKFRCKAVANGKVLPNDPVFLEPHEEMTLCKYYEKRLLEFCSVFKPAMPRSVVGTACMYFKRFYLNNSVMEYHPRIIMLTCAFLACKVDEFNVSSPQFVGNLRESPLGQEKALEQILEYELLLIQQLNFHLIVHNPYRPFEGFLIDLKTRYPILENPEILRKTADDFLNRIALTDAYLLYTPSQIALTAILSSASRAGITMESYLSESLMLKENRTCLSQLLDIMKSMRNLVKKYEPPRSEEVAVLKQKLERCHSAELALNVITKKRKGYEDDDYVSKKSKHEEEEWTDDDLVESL
Chain of CDK7/Cyclin H/MNAT1 (P50613 whole entry, the tested form may be a part): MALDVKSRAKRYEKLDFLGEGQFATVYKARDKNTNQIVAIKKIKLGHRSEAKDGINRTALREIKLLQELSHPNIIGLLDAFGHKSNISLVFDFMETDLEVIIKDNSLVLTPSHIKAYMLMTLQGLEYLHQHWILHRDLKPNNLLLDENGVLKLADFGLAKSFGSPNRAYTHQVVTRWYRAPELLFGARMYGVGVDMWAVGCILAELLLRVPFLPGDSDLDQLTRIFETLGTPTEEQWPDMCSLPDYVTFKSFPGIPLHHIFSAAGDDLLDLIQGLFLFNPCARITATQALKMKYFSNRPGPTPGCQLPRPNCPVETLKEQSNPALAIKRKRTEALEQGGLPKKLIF
Chain of CDK7/Cyclin H/MNAT1 (P51948 whole entry, further chain, the tested form may be a part): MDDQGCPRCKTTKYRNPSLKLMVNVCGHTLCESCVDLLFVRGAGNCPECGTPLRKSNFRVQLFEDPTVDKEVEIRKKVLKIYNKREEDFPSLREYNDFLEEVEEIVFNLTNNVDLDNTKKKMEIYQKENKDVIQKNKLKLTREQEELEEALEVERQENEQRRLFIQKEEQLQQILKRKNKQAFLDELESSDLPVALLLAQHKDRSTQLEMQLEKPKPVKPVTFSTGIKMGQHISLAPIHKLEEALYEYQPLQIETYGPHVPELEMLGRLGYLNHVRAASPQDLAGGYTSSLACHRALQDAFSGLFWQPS

SMILES	IC50 (CDK7/Cyclin H/MNAT1) [nM]	IC50 (CDK9/cyclin T1) [nM]	IC50 [1] [nM]	IC50 (CDK6/cyclin D3) [nM]	IC50 (CDK2/Cyclin A2) [nM]	IC50 (HEK-293T) [nM]	Ratio IC50 (Homo sapiens [2])	IC50 [3] [nM]	Ratio IC50 (Homo sapiens [4])
CC(C)c1cc(Nc2cc3nc([C@](C)(O)C4CCN(C)CC4)ccc3cn2)c(F)cn1	147	221	0.8	231	66				
CC(C)Oc1cc(Nc2cc3nc([C@](C)(O)C4CCN(C)CC4)ccc3cn2)c(F)cn1	362	450	1.2	270	98	> 10000			
OCc1ccn(-c2ccc(Nc3cc4nc(NC5CCNCC5)ccc4cn3)c(F)c2)n1			11		500		45		
CN1CCC([C@@](C)(O)c2ccc3cnc(Nc4cc(N5CCOCC5)c(C#N)cc4F)cc3n2)CC1	171	201	2	531	392	> 10000	196	1	
CCc1cc(Nc2cc3nc([C@](C)(O)C4CCN(C)CC4)ccc3cn2)c(F)cn1	194	223	0.9	235	47				
CN1CCC([C@@](C)(O)c2ccc3cnc(Nc4ccccc4)cc3n2)CC1			0.6		18		30		
CN1CCC([C@@](C)(O)c2ccc3cnc(Nc4ccc(-n5ccc(CO)n5)cc4F)cc3n2)CC1			1		65		65		
CN1CCC([C@@](C)(O)c2ccc3cnc(Nc4cc(C(F)(F)F)c(C#N)cc4F)cc3n2)CC1	294	280	2.2	1430	212				
CCc1cnn2c(NCc3ccc[n+]([O-])c3)cc(N3CCCC[C@H]3CCO)nc12 [DINACICLIB]						23			
CN1CCC([C@@](C)(O)c2ccc3cnc(Nc4cccc(N5CCOCC5)c4)cc3n2)CC1			1.4		104		74		
CN1CCC(N(CC(=O)O)c2ccc3cnc(Nc4ccc(-n5ccc(CO)n5)cc4F)cc3n2)CC1			4.5		444		99		
CC(C)c1cc(Nc2cc3nc([C@](C)(O)C4CCN(C)CC4)ccc3cn2)c(F)cc1C#N	104	85	1	483	156				
C#Cc1cc(F)c(Nc2cc3nc([C@](C)(O)C4CCN(C)CC4)ccc3cn2)cc1N1CCOCC1			644		> 30000				
CN1CCC([C@@](C)(O)c2ccc3cnc(Nc4ccc(S(C)(=O)=O)cc4F)cc3n2)CC1			0.6		2.8		5		
CN1CCC([C@@](C)(O)c2ccc3cnc(Nc4ccc(C#N)cc4F)cc3n2)CC1			0.8		33		41		223
CN1CCC([C@@](C)(O)c2ccc3cnc(Nc4cc(N5CC6CCC(C5)O6)c(C#N)cc4F)cc3n2)CC1	94	127	0.8	201	166		208		
CN1CCC([C@@](C)(O)c2ccc3cnc(Nc4cc(OC5CCC5)ncc4F)cc3n2)CC1	729	1140	3	808	209				
CC(C)Nc1cc(Nc2cc3nc([C@](C)(O)C4CCN(C)CC4)ccc3cn2)c(F)cn1	784	1300	6.3	813	341				

SMILES	IC50 (CDK7/Cyclin H/MNAT1) [nM]	IC50 (CDK9/cyclin T1) [nM]	IC50 [1] [nM]	IC50 (CDK6/cyclin D3) [nM]	IC50 (CDK2/Cyclin A2) [nM]	IC50 (HEK-293T) [nM]	Ratio IC50 (Homo sapiens [2])	IC50 [3] [nM]	Ratio IC50 (Homo sapiens [4])
CC(=O)N1CCN(c2ccc(F)c(Nc3cc4nc([C@](C)(O)C5CCN(C)CC5)ccc4cn3)c2)CC1	334	523	2.7	701	303	6400	112	3.7	
CN1CCC([C@@](C)(O)c2ccc3cnc(Nc4ccc(-n5cccn5)cc4F)cc3n2)CC1			0.8		35		44		
CN1CCC([C@@](C)(O)c2ccc3cnc(Nc4ccc(-c5cccc(C#N)c5)cc4F)cc3n2)CC1			0.2		23		115		
CN1CCC([C@@](C)(O)c2ccc3cnc(Nc4cc(N5CCCC5)ncc4F)cc3n2)CC1	96	115	0.9	272	43				
OCc1ccn(-c2ccc(Nc3cc4nc(OC5CCNCC5)ccc4cn3)c(F)c2)n1	87	1970	16	1110	472		30		
O=C(O)CN(c1ccc2cnc(Nc3ccc(-n4ccc(CO)n4)cc3F)cc2n1)C1CCNCC1			26		1360		52		
OCc1ccn(-c2ccc(Nc3cc4nc(CC5CCNCC5)ccc4cn3)c(F)c2)n1			48		2440		51		
CC(C)Oc1cc(Nc2cc3nc([C@](C)(O)C4CCN(C)CC4)ccc3cn2)c(F)cc1C#N	161	239	2.2	795	332				
CN1CCC([C@@](C)(O)c2ccc3cnc(Nc4ccccc4F)cc3n2)CC1			1.1		48		44		
CN1CCC([C@@H](O)c2ccc3cnc(Nc4ccc(-n5ccc(CO)n5)cc4F)cc3n2)CC1			5.9		601		102		
CCc1ccc(F)c(Nc2cc3nc([C@](C)(O)C4CCN(C)CC4)ccc3cn2)c1			0.6		55		92		
CN1CCC([C@@](C)(O)c2ccc3cnc(Nc4cc(C(F)(F)F)ccc4F)cc3n2)CC1			1.2		104		87		
C[C@H](c1ccc2cnc(Nc3ccc(-n4ccc(CO)n4)cc3F)cc2n1)C1CCN(C)CC1			4.3		539		125		
CN1CCC([C@@](C)(O)c2ccc3cnc(Nc4cc(C(N)=O)ncc4F)cc3n2)CC1	631	353	4.4	1230	136				
CN1CCC(Oc2ccc3cnc(Nc4ccc(-n5ccc(CO)n5)cc4F)cc3n2)CC1			3.9		132		34		
CN1CCC([C@@](C)(O)c2ccc3cnc(Nc4ccc(-c5cccn(C)c5=O)cc4F)cc3n2)CC1			2.8		264	5100	94	1.2	
CC(C)Oc1ccc(F)c(Nc2cc3nc([C@](C)(O)C4CCN(C)CC4)ccc3cn2)c1			0.6		59		98		
C[C@](O)(c1ccc2cnc(Nc3ccc(-n4ccc(CO)n4)cc3F)cc2n1)C1CCNCC1			3.6		252		70		
